Test results published in US4552879A, “Benzoheterocyclic compounds and pharmaceutical composition thereof” (Otsuka Pharmaceutical Co., Ltd., priority 1980, dated 1985).
Values after ≈ are worked out from the molar mass of the structure shown. Like-named read-outs stand apart in the source and are kept apart here.

Key:
Assay in all cases: Minimum inhibitory concentration, serial dilution method on agar plate
Format in all cases: cell-based
[1] = tested on: Escherichia Coli NIHJ JC-2 (IFO 12734); details: read-out: Minimum Inhibitory Concentration
[2] = tested on: Pseudomonas aeruginosa E-2; details: Pseudomonas aeruginosa, read-out: Minimum Inhibitory Concentration
Pseudomonas putida 12996 = details: read-out: Minimum Inhibitory Concentration
[3] = tested on: Pseudomonas aeruginosa ATCC 10145; details: Pseudomonas aeruginosa, read-out: Minimum Inhibitory Concentration
[4] = tested on: Salmonella typhi 0-901 (NCTC 8393); details: Salmonella enterica
Shigella sonnei EW 33 = tested on: Shigella sonnei EW 33
Description: The antimicrobial activity of the following test compounds on various test organisms listed below was determined by the serial dilution method on agar plate (Heart Infusion agar produced by Difco Co.) (see CHEMOTHERAPY 22, pp. 1126-1128 (1974)), and the minimum inhibitory concentrations (mcg/ml) obtained are shown in Tables 1, 2 and 3 below.
A sample of each test organism was prepared so that the population of the organism was 1×10^8 cells/ml (O.D. 660 mμ=0.07 to 0.16) and 1×10^6 cells/ml (which was obtained by diluting 100 fold the above 1×10^8 cells/ml preparation).

[5] = tested on: Serratia marcescens IFO 12648; details: read-out: Minimum Inhibitory Concentration
[6] = tested on: Staphylococcus aureus FDA 209 P; details: Staphylococcus aureus, read-out: Minimum Inhibitory Concentration
[7] = tested on: Streptococcus pyogenes IID S-23; details: Streptococcus pyogenes, read-out: Minimum Inhibitory Concentration
[8] = tested on: Bacillus subtilis PCI 219
Bacillus cereus IFO 3001 = tested on: Bacillus cereus IFO 3001
Bacillus cereus IFO 3446 = tested on: Bacillus cereus IFO 3446
[9] = tested on: Bacillus pumilus IFO 3813
[10] = tested on: Staphylococcus aureus ATCC 12692
[11] = tested on: Staphylococcus aureus Newmann
[12] = tested on: Staphyloccus aureus Smith
[13] = tested on: Staphylococcus aureus IFO 3761
[14] = tested on: Staphylococcus aureus IFO 3060
[15] = tested on: Staphylococcus aureus No. 80
[16] = tested on: Staphylococcus aureus B-70
[17] = tested on: Staphylococcus aureus B-5
[18] = tested on: Staphylococcus aureus 7447
[19] = tested on: Staphylococcus aureus No. 286
[20] = tested on: Staphylococcus aureus 90124
[21] = tested on: Staphylococcus aureus 50774
[22] = tested on: Staphylococcus epidermidis ATCC 12228
[23] = tested on: Staphylococcus epidermidis IFO 3762
[24] = tested on: Micrococcus lysodeikticus IAM 1313; details: Micrococcus luteus
Sarcina lutea PCI 1001 = tested on: Sarcina lutea PCI 1001
[25] = tested on: Corynebacterium diphteriae
[26] = tested on: Peptococcus asaccharolyticus WAL 3218; details: Peptoniphilus asaccharolyticus

CC1CCc2c(N3CCC(O)CC3)c(F)cc3c(=O)c(C(=O)O)cn1c23 (centres unmarked) [Compound 1, 9-Fluoro-8-(4-hydroxy-1-piperidyl)-5-methyl-6,7-dihydro-1-oxo-1H,5H-benzo[ij]quinolizine-2-carboxylic acid] was tested, and the MIC ([1]; 1×10^6 cells/ml) was 0.39 µg/mL (≈ 1.08 µM), the MIC ([1]; 1×10^8 cells/ml) was 0.39 µg/mL (≈ 1.08 µM) and the MIC ([2]; E2, 1×10^6 cells/ml) was 6.25 µg/mL (≈ 17.3 µM). The MIC ([2]; E2, 1×10^8 cells/ml) was 6.25 µg/mL (≈ 17.3 µM), the MIC (Pseudomonas putida 12996; Pseudomonas putida, 12996, 1×10^6 cells/ml) was 6.25 µg/mL (≈ 17.3 µM) and the MIC (Pseudomonas putida 12996; Pseudomonas putida, 12996, 1×10^8 cells/ml) was 6.25 µg/mL (≈ 17.3 µM). For the same compound, the MIC ([3]; ATCC10145, 1×10^6 cells/ml) was 3.13 µg/mL (≈ 8.69 µM), the MIC ([3]; ATCC10145, 1×10^8 cells/ml) was 3.13 µg/mL (≈ 8.69 µM) and the MIC ([4]; read-out: Minimum Inhibitory Concentration, 1×10^6 cells/ml) was 0.05 µg/mL (≈ 0.139 µM). For the same compound, the MIC ([4]; read-out: Minimum Inhibitory Concentration, 1×10^8 cells/ml) was 0.1 µg/mL (≈ 0.277 µM), the MIC (Shigella sonnei EW 33; EW33, 1×10^6 cells/ml) was 0.2 µg/mL (≈ 0.555 µM) and the MIC (Shigella sonnei EW 33; EW33, 1×10^8 cells/ml) was 0.2 µg/mL (≈ 0.555 µM). The MIC ([5]; IFO12648, 1×10^6 cells/ml) was 0.78 µg/mL (≈ 2.16 µM), the MIC ([5]; IFO12648, 1×10^8 cells/ml) was 1.56 µg/mL (≈ 4.33 µM) and the MIC ([6]; FDA209, 1×10^6 cells/ml) was ≤ 0.025 µg/mL. The MIC ([6]; FDA209, 1×10^8 cells/ml) was ≤ 0.05 µg/mL, the MIC ([7]; IIDS23, 1×10^6 cells/ml) was 0.39 µg/mL (≈ 1.08 µM) and the MIC ([7]; IIDS23, 1×10^8 cells/ml) was 0.78 µg/mL (≈ 2.16 µM). The “Minimum Inhibitory Concentration” value ([8]; 1×10^6 cells/ml) was 0.024 µg/mL, the MIC ([8]; Bacillus subtilis, PCI219, 1×10^8 cells/ml) was 0.024 µg/mL (≈ 0.0666 µM) and the “Minimum Inhibitory Concentration” value (Bacillus cereus IFO 3001; 1×10^6 cells/ml) was 0.10 µg/mL. For the same compound, the MIC (Bacillus cereus IFO 3001; Bacillus cereus, IFO3001, 1×10^8 cells/ml) was 0.1 µg/mL (≈ 0.277 µM), the “Minimum Inhibitory Concentration” value (Bacillus cereus IFO 3446; 1×10^6 cells/ml) was 0.10 µg/mL and the MIC (Bacillus cereus IFO 3446; Bacillus cereus, IFO3446, 1×10^8 cells/ml) was 0.1 µg/mL (≈ 0.277 µM). The “Minimum Inhibitory Concentration” value ([9]; 1×10^6 cells/ml) was 0.024 µg/mL, the MIC ([9]; Bacillus pumilus, IFO3813, 1×10^8 cells/ml) was 0.024 µg/mL (≈ 0.0666 µM) and the “Minimum Inhibitory Concentration” value ([10]; 1×10^6 cells/ml) was 0.05 µg/mL. The MIC ([10]; Staphylococcus aureus, ATCC12692, 1×10^8 cells/ml) was 0.05 µg/mL (≈ 0.139 µM), the MIC ([11]; 1×10^6 cells/ml) was 0.024 µg/mL (≈ 0.0666 µM) and the MIC ([11]; 1×10^8 cells/ml) was 0.05 µg/mL (≈ 0.139 µM). The “Minimum Inhibitory Concentration” value ([12]; 1×10^6 cells/ml) was 0.05 µg/mL, the MIC ([12]; 1×10^8 cells/ml) was 0.05 µg/mL (≈ 0.139 µM) and the MIC ([13]; IFO3761, 1×10^6 cells/ml) was 0.024 µg/mL (≈ 0.0666 µM). For the same compound, the MIC ([13]; IFO3761, 1×10^8 cells/ml) was 0.1 µg/mL (≈ 0.277 µM), the MIC ([14]; IFO3060, 1×10^6 cells/ml) was 0.05 µg/mL (≈ 0.139 µM) and the MIC ([14]; IFO3060, 1×10^8 cells/ml) was 0.1 µg/mL (≈ 0.277 µM). It also gave an MIC ([15]; NO.80, 1×10^6 cells/ml) of 0.024 µg/mL (≈ 0.0666 µM), an MIC ([15]; NO.80, 1×10^8 cells/ml) of 0.05 µg/mL (≈ 0.139 µM) and an MIC ([16]; B70, 1×10^6 cells/ml) of 0.024 µg/mL (≈ 0.0666 µM). The MIC ([16]; B70, 1×10^8 cells/ml) was 0.05 µg/mL (≈ 0.139 µM), the “Minimum Inhibitory Concentration” value ([17]; 1×10^6 cells/ml) was 0.024 µg/mL and the MIC ([17]; Staphylococcus aureus, B5, 1×10^8 cells/ml) was 0.024 µg/mL (≈ 0.0666 µM). The “Minimum Inhibitory Concentration” value ([18]; 1×10^6 cells/ml) was 0.05 µg/mL, the MIC ([18]; Staphylococcus aureus, 7447, 1×10^8 cells/ml) was 0.05 µg/mL (≈ 0.139 µM) and the MIC ([19]; NO.286, 1×10^6 cells/ml) was 0.05 µg/mL (≈ 0.139 µM). The MIC ([19]; NO.286, 1×10^8 cells/ml) was 0.1 µg/mL (≈ 0.277 µM), the “Minimum Inhibitory Concentration” value ([20]; 1×10^6 cells/ml) was 0.10 µg/mL and the MIC ([20]; Staphylococcus aureus, 90124, 1×10^8 cells/ml) was 0.1 µg/mL (≈ 0.277 µM). For the same compound, the “Minimum Inhibitory Concentration” value ([21]; 1×10^6 cells/ml) was 0.05 µg/mL, the MIC ([21]; Staphylococcus aureus, 50774, 1×10^8 cells/ml) was 0.05 µg/mL (≈ 0.139 µM) and the “Minimum Inhibitory Concentration” value ([22]; 1×10^6 cells/ml) was 0.05 µg/mL. The MIC ([22]; Staphylococcus epidermidis, ATCC12228, 1×10^8 cells/ml) was 0.05 µg/mL (≈ 0.139 µM), the MIC ([23]; IFO3762, 1×10^6 cells/ml) was 0.2 µg/mL (≈ 0.555 µM) and the MIC ([23]; IFO3762, 1×10^8 cells/ml) was 0.39 µg/mL (≈ 1.08 µM). The MIC ([24]; IAM1313, 1×10^6 cells/ml) was 0.1 µg/mL (≈ 0.277 µM), the MIC ([24]; IAM1313, 1×10^8 cells/ml) was 0.2 µg/mL (≈ 0.555 µM) and the “Minimum Inhibitory Concentration” value (Sarcina lutea PCI 1001; 1×10^6 cells/ml) was 0.39 µg/mL. For the same compound, the MIC (Sarcina lutea PCI 1001; Micrococcus luteus, PCI1001, 1×10^8 cells/ml) was 0.39 µg/mL (≈ 1.08 µM), the “Minimum Inhibitory Concentration” value ([25]; 1×10^6 cells/ml) was 0.05 µg/mL and the MIC ([25]; Corynebacterium, 1×10^8 cells/ml) was 0.05 µg/mL (≈ 0.139 µM). The MIC ([26]; WAL3218, 1×10^6 cells/ml) was 0.78 µg/mL (≈ 2.16 µM) and the MIC ([26]; WAL3218, 1×10^8 cells/ml) was 1.56 µg/mL (≈ 4.33 µM).
